Test results taken from patent publication US20150174068A1, “Apparatus, Composition, and Related Methods for Transdermal Delivery of Active Ingredients” (CURE IP HOLDINGS, LLC, priority 2011, published 2015).
Where two headings read alike, the source gives them in different places.

Assays:
[1] = human, pH 7.4
[2] = In vitro transdermal caffeine delivery, Franz diffusion cells, excised human epidermis; format: in vitro ADME; settings: after application of the formulations
Experimental: Pre-clinical selection of topical formulations was performed using an in-vitro penetration study through human epidermal membrane, which assesses the percutaneous absorption profiles of applied drugs. The method is based on the use of excised human skin as a membrane in a diffusion system that simulates in-vivo skin conditions. By analyzing the amount of the drug reaching the receptor solution, the penetration profile of the drug in the skin can be assessed and used as a tool to determine the feasibility of formulations for subsequent development. Embodiments of the transdermal compositions were tested in an in vitro penetration study through human epidermis as a testing membrane to simulate topical drug delivery. In particular, excised human epidermis was utilized to assess the penetration profiles of caffeine. Two transdermal compositions were tested: Formulation A and Formulation B. […] Formulation A was tested with and without occlusion. Parafilm was applied for occlusion tests, and the samples were kept under occlusion during the period of the study. […] The materials for the assays were: […] Formulation A; and Formulation B. […] Therefore, each formulation contained radioactive caffeine of 50 μCi/mL. The mixtures were stored at a 4° C. refrigerator after preparation. […] The amount of radioactive caffeine was analyzed from the receptor fluid samples. […]

SMILES	amount of active ingredient that penetrated the epidermis ([1]; 5 %)	amount of active ingredient that penetrated the epidermis [1]	time to penetration of caffeine through the epidermis into the receptor chamber [2]
C[C@]12CC[C@@H]3c4ccc(O)cc4CC[C@H]3[C@@H]1CC[C@@H]2O [estradiol]	Greater than 2%		
CC(=O)O[C@H]1C(=O)[C@@]2(C)[C@H]([C@H](OC(=O)c3ccccc3)[C@]3(O)C[C@H](OC(=O)[C@H](O)[C@@H](NC(=O)c4ccccc4)c4ccccc4)C(C)=C1C3(C)C)[C@]1(OC(C)=O)CO[C@@H]1C[C@@H]2O [Paclitaxel, paclitaxel]		approximately 0.5%	
Cn1c(=O)c2c(ncn2C)n(C)c1=O [caffeine]	Greater than 3%	greater than 1%	≤ 3 min
Nc1nc2ncc(CNc3ccc(C(=O)N[C@@H](CCC(=O)O)C(=O)O)cc3)nc2c(=O)[nH]1 [folic acid]	Approximately 1%		
